Measured values as given in US20260125360A1, “HERBICIDAL IMIDAZOLE COMPOUNDS” (SYNGENTA CROP PROTECTION AG, priority 2022, published 2026).

How the values were obtained:
Assay type in all cases: in vivo
Details in all cases: 250 g/ha, evaluated after 13 days
[1] = test system: Amaranthus palmeri (AMAPA); assay: Post-emergence herbicide glasshouse test
Method in brief: (§1)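 Species sown in standard soil and sprayed 1 day (pre-emergence) or 8 days (post-emergence) after sowing, at 250 g/ha unless noted, in acetone/water (50:50) with 0.5% Tween 20. Glasshouse at 24/16 °C day/night, 14 h light, 65% humidity. Percentage damage scored after 13 days on a 1–5 scale (5=81–100%, 1=0–20%).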

[2] = test system: Amaranthus retoflexus (AMARE); assay: Post-emergence herbicide glasshouse test
Method in brief: as §1

[3] = test system: Echinochloa crus-galli (ECHCG); assay: Post-emergence herbicide glasshouse test
Method in brief: as §1

[4] = test system: Ipomoea hederacea (IPOHE); assay: Post-emergence herbicide glasshouse test
Method in brief: as §1

[5] = test system: Amaranthus palmeri (AMAPA); assay: Pre-emergence herbicide glasshouse test
Method in brief: as §1

[6] = test system: Amaranthus retoflexus (AMARE); assay: Pre-emergence herbicide glasshouse test
Method in brief: as §1

[7] = test system: Echinochloa crus-galli (ECHCG); assay: Pre-emergence herbicide glasshouse test
Method in brief: as §1

[8] = test system: Ipomoea hederacea (IPOHE); assay: Pre-emergence herbicide glasshouse test
Method in brief: as §1

Cc1cc(Cn2cc(C(F)(F)F)nc2-c2ccc(Cl)nc2)no1 [Compound 1.075]
5 (5=81-100%): percentage damage caused to the plant, AMAPA (five-point scale) [1] | percentage damage caused to the plant, AMARE (five-point scale) [2] | percentage damage caused to the plant, ECHCG (five-point scale) [3] | percentage damage caused to the plant, IPOHE (five-point scale) [4] | percentage damage caused to the plant, AMAPA (five-point scale) [5] | percentage damage caused to the plant, AMARE (five-point scale) [6] | percentage damage caused to the plant, ECHCG (five-point scale) [7] | percentage damage caused to the plant, IPOHE (five-point scale) [8]
